Experimental data: patent US12263248B2, “Compounds and compositions for intracellular delivery of therapeutic agents” (ModernaTX, Inc., priority 2018, dated 2025)
Entries after “also recorded” stand apart in the source; their conditions may differ.

Experiments:
[1] = Encapsulation efficiency of RNA (QUANT-IT RIBOGREEN RNA assay); format: physicochemical; settings: for % Encapsulation: lipid nanoparticle, ±SD within one assay run (Table 37)
Procedure, shortened: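 RiboGreen fluorescence (ex ~480, em ~520 nm) compared between intact samples and Triton X-100-lysed samples after 15 min at 37 °C in TE buffer, pH 7.5. Percent free RNA is the blank-corrected intact/disrupted ratio.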

[2] = test system: luciferase (Luc) mRNA; test: Luc expression, whole body bioluminescence after intravenous administration to mice; format: in vivo; settings: for Fold increase in total body Luc Flux relative to MC3 at 6 h: Table 3A; for Total Flux 3 hours / Total Flux 6 hours / Total Flux 24 hours: Luc mRNA; for luciferase activity relative to MC3 LNP control: 0.5 mg/kg (mRNA dose)
Procedure, shortened: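 Bioluminescence, read as region-of-interest total flux at 3, 6 and 24 h, followed a single 0.5 mg/kg intravenous dose of Luc mRNA-loaded nanoparticles in mice (n=6). Luciferin substrate (200 μL, 15 mg/mL in PBS) was injected intraperitoneally into CD-1 mice 15 minutes ahead of each imaging point.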

## CCCCCCCCC(CCCCCCCC)OC(=O)CCCCCCCN(CCO)CCCCCCCC(=O)OC(CCCCCCCC)CCCCCCCC [Compound 29, Di(heptadecan-9-yl) 8,8′-((2-hydroxyethyl)azanediyl)dioctanoate]
[1]; Table 1A
  EE (%): 96.99%
[1]
  % Encapsulation: 97.0 ± 0.6%
[2]; i.v. administration
  Fold increase in total body Luc Flux relative to MC3 at 6 h: 0.78
[2]; intravenous
  Fold increase in Luc expression relative to MC3, Intravenous (0.5 mpk dose): 1.03
[2]; mice, i.v., 0.5 mg/kg
  Total Flux 3 hours: 4.61E+09
  Total Flux 6 hours: 2.89E+09
  Total Flux 24 hours: 3.55E+08
[2]; mice, intravenous
  luciferase activity relative to MC3 LNP control: lower luciferase activity

## CCCCCCCCCOC(=O)CCCCCCCN(CCO)CCCCCCCCCC(=O)OC(CCCCCC)CCCCCC [Compound 147, Tridecan-7-yl 10-((2-hydroxyethyl)(8-(nonyloxy)-8-oxooctyl)amino)decanoate]
[1]; Table 1A
  EE (%): 88.31%
[1]; Table 1B, formulated with hEPO mRNA
  EE (%): 91.0%
[2]; Table 3C, i.v. administration
  6 h Lipid/MC3 Avg. Luc Expression: 6.68
  Fold increase AUC Lipid/MC3: 6.83
[2]; Table 3C, i.v. administration, Luc
  AUC (h * p/s): 5.63E+11 h * p/s
[2]; mice, i.v., 0.5 mg/kg
  Total Flux 3 hours: 3.24E+10
  Total Flux 6 hours: 4.87E+10
  Total Flux 24 hours: 3.32E+08

## CCCCCCCCCOC(=O)CCCCCCCN(CCO)CCCCCCCC(=O)N(CCCCCCCC)CCCCCCCC [Compound 144, Nonyl 8-((8-(dioctylamino)-8-oxooctyl)(2-hydroxyethyl)amino)octanoate]
[1]; Table 1A
  EE (%): 90.3%
[2]; mice, i.v., 0.5 mg/kg
  Total Flux 3 hours: 9.50E+09
  Total Flux 6 hours: 1.82E+09
  Total Flux 24 hours: 3.36E+08

## CCCCCCCCCOC(=O)CCCCCCCN(CCO)CCCCCCCC(=O)OCCCCCCCCC [Compound 138, Dinonyl 8,8′-((2-hydroxyethyl)azanediyl)dioctanoate]
[1]; Table 1A
  EE (%): 91.8%
[1]
  % Encapsulation: 91.8 ± 0.9%
[2]; mice, i.v., 0.5 mg/kg
  Total Flux 3 hours: 2.97E+07
  Total Flux 6 hours: 2.30E+07
  Total Flux 24 hours: 1.63E+06

## CCCCCCCCCOC(=O)CCCCCCCN(CCO)CCCCCCC(=O)OCC(CCCCCCCC)CCCCCCCC [Compound 143, Nonyl 8-((2-hydroxyethyl)(7-((2-octyldecyl)oxy)-7-oxoheptyl)amino)octanoate]
[1]; Table 1A
  EE (%): 97.37%
[2]; mice, i.v., 0.5 mg/kg
  Total Flux 3 hours: 1.76E+10
  Total Flux 6 hours: 2.03E+10
  Total Flux 24 hours: 2.47E+08

## CCCCCCCCCN(CCO)CCCCCCCC(=O)OC(CCCCCCCC)CCCCCCCC [Compound 3, Heptadecan-9-yl 8-((2-hydroxyethyl)(nonyl)amino)octanoate]
[1]; Table 1A
  EE (%): 92.25%
[2]; i.v. administration
  Fold increase in total body Luc Flux relative to MC3 at 6 h: 2.24
[2]; intravenous
  Fold increase in Luc expression relative to MC3, Intravenous (0.5 mpk dose): 2.24
[2]; mice, i.v., 0.5 mg/kg
  Total Flux 3 hours: 6.55E+10
  Total Flux 6 hours: 7.37E+10
  Total Flux 24 hours: 4.96E+09

## CCCCCCCCC(CCCCCCCC)OC(=O)CCCCCCCN(CCO)CCCCCCCC(=O)OCC1CC1CCCCCC (centres unmarked) [Compound 28, Heptadecan-9-yl 8-((8-((2-hexylcyclopropyl)methoxy)-8-oxooctyl)(2-hydroxyethyl)amino)octanoate]
[1]; Table 1A
  EE (%): 97.03%
[2]; i.v. administration
  Fold increase in total body Luc Flux relative to MC3 at 6 h: 2.46
[2]; mice, i.v., 0.5 mg/kg
  Total Flux 3 hours: 8.98E+10
  Total Flux 6 hours: 1.13E+11
  Total Flux 24 hours: 1.20E+09
[2]; mice, i.v., 0.5 mg/kg, comparison in words
  total flux at 3 hours: highest

## CCCCCCCCC(CCC)OC(=O)CCCCCCCN(CCO)CCCCCCCC(=O)OC(CCCCCCCC)CCCCCCCC (centres unmarked) [Compound 50, dodecan-4-yl 8-((8-(heptadecan-9-yloxy)-8-oxooctyl)(2-hydroxyethyl)amino)octanoate]
[1]; Table 1A
  EE (%): 97.33%
[2]; i.v. administration
  Fold increase in total body Luc Flux relative to MC3 at 6 h: 6.81
[2]; i.v. administration, in words
  flux measured at 6 h relative to the MC3 formulation: higher flux than MC3 formulations
[2]; mice, i.v., 0.5 mg/kg
  Total Flux 3 hours: 3.81E+10
  Total Flux 6 hours: 7.49E+10
  Total Flux 24 hours: 5.02E+08

## CCCCC/C=C\C/C=C\CCCCCCCCN(CCO)CCCCCCCC(=O)OCCCCCCCCC [Compound 136, Nonyl 8-((2-hydroxyethyl)((9Z,12Z)-octadeca-9,12-dien-1-yl)amino)octanoate]
[1]; Table 1A
  EE (%): 90.9%
[1]
  % Encapsulation: 90.9 ± 0.9%
[2]; mice, i.v., 0.5 mg/kg
  Total Flux 3 hours: 7.21E+08
  Total Flux 6 hours: 7.33E+08
  Total Flux 24 hours: 3.39E+07

## CCCCCCCCCOC(=O)CCCCCCCN(CCCCCCCC(=O)OC(CCCCCCCC)CCCCCCCC)C[C@H](C)O [Compound 12, Heptadecan-9-yl (S)-8-((2-hydroxypropyl)(8-(nonyloxy)-8-oxooctyl)amino)octanoate]
[1]; Table 1A
  EE (%): 92.44%
[2]; mice, i.v., 0.5 mg/kg
  Total Flux 3 hours: 5.14E+09
  Total Flux 6 hours: 1.27E+10
  Total Flux 24 hours: 2.45E+08

## CCCCCCCCCCCCCCN(CCO)CCCCCCCC(=O)OC(CCCCCCCC)CCCCCCCC [Compound 2, Heptadecan-9-yl 8-((2-hydroxyethyl)(tetradecyl)amino)octanoate]
[1]; Table 1A
  EE (%): 93.88%
[2]; i.v. administration
  Fold increase in total body Luc Flux relative to MC3 at 6 h: 1.31
[2]; mice, i.v., 0.5 mg/kg
  Total Flux 3 hours: 1.93E+10
  Total Flux 6 hours: 4.31E+10
  Total Flux 24 hours: 2.43E+09

## CCCCCCCCC(CCCCCCCC)OC(=O)CCCCCCCN(CCO)CCCCCC [Compound 5, Heptadecan-9-yl 8-(hexyl(2-hydroxyethyl)amino)octanoate]
[1]; Table 1A
  EE (%): 77.07%
[2]; i.v. administration
  Fold increase in total body Luc Flux relative to MC3 at 6 h: 0.005
[2]; mice, i.v., 0.5 mg/kg
  Total Flux 3 hours: 2.77E+08
  Total Flux 6 hours: 1.76E+08
  Total Flux 24 hours: 2.40E+07

## CCCCCCCC/C=C\COC(=O)CCCCCN(CCO)CCCCCC(=O)OC/C=C\CCCCCCCC [Compound 140, Di((Z)-undec-2-en-1-yl) 6,6′-((2-hydroxyethyl)azanediyl)dihexanoate]
[1]; Table 1A
  EE (%): 89.2%
[2]; mice, i.v., 0.5 mg/kg
  Total Flux 3 hours: 3.74E+06
  Total Flux 6 hours: 1.70E+06
  Total Flux 24 hours: 5.67E+05
[2]; mice, i.v., 0.5 mg/kg, 3, 6 and 24 hour, in words
  flux at all timepoints measured: significantly lower flux

## CCCCC/C=C\C/C=C\CCCCCCCCN(CCO)CCCCCCCC(=O)OC(CCCCCCCC)CCCCCCCC [Compound 6, Heptadecan-9-yl 8-((2-hydroxyethyl)((9Z,12Z)-octadeca-9,12-dien-1-yl)amino)octanoate]
[1]; Table 1A
  EE (%): 97.60%
[1]
  % Encapsulation: 97.6 ± 1.2%
[1]; lipid:DSPC:Chol:PEG-DMG (50:10:38.5:1.5), hEPO mRNA
  EE: 97.84%
[2]; i.v. administration
  Fold increase in total body Luc Flux relative to MC3 at 6 h: 1.15
[2]; mice, i.v., 0.5 mg/kg
  Total Flux 3 hours: 5.38E+09
  Total Flux 6 hours: 7.60E+09
  Total Flux 24 hours: 7.69E+08
[2]; mice, intravenous
  luciferase activity relative to MC3 LNP control: Equivalent expression to MC3 LNPs
[2]; mice, intravenous, 6 h
  Average total flux (6 h, ffluc): 7.60 × 10^9
  Fold increase in average total flux relative to MC3: 1.15

## CCCCCCCCCOC(=O)CCCN(CCO)CCCCCCCC(=O)OC(CCCCCCCC)CCCCCCCC [Compound 26, Heptadecan-9-yl 8-((2-hydroxyethyl)(4-(nonyloxy)-4-oxobutyl)amino) octanoate]
[1]; Table 1A
  EE (%): 97.43%
[1]
  % Encapsulation: 97.4 ± 0.2%
[1]; nanoparticle composition with hEPO mRNA (Table 30)
  EE: 95.60%
[2]; 0.5 mpk dose to mouse, 6 hours after administration
  Lipid/MC3 Luc expression: 4.24
[2]; i.v. administration
  Fold increase in total body Luc Flux relative to MC3 at 6 h: 4.24
[2]; intravenous administration, in words
  fold increase in Luc expression over MC3 formulations: highest fold increase
[2]; intravenous
  Fold increase in Luc expression relative to MC3, Intravenous (0.5 mpk dose): 4.24
[2]; mice, i.v., 0.5 mg/kg
  Total Flux 3 hours: 6.75E+10
  Total Flux 6 hours: 1.57E+10
  Total Flux 24 hours: 1.54E+09
[2]; mice, intravenous, 0.5 mg/kg
  luciferase activity relative to MC3 LNP control: higher expression compared to MC3; also recorded: highest luciferase activity of the series
